Data reported in patent US11078216B2, “Bisaryl amides as NRF2 activators” (GLAXOSMITHKLINE INTELLECTUAL PROPERTY DEVELOPMENT LIMITED, priority 2016, dated 2021).

These compounds were tested on NRF2 (NQO1 activity as marker for NRF2 activation), BEAS-2B cells (assay: BEAS-2B NQO1 MTT Assay). Conditions: Homo sapiens, EC50 of NQO1 specific activity induction, 48 hours incubation, read-out: EC50.
Type: cell-based
Outline: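 BEAS-2B cells were exposed to compound for 48 h at 37° C, 5% CO2, then lysed. NQO1 activity was measured kinetically by MTT reduction at 570 nm over 30 minutes; EC50 came from 3-parameter fit of Delta OD/min versus log concentration.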

| Structure (SMILES) | EC50 [nM] |
| --- | --- |
| CC[C@@H]1CN(Cc2cc([C@@H](c3ccc4c(nnn4CC)c3C)C(C)(C)NC(=O)CCCNC(C)=O)ccc2C)S(=O)(=O)c2ccccc2O1 [Example 133, 4-Acetamido-N-((S)-1-(3-(((R)-4-ethyl-1,1-dioxido-3,4-dihydro-2H-benzo[b][1,4,5]oxathiazepin-2-yl)methyl)-4-methylphenyl)-1-(1-ethyl-4-methyl-1H-benzo[d][1,2,3]triazol-5-yl)-2-methylpropan-2-yl)butanamide] | 1000 to 10000 |
| CC[C@@H]1CN(Cc2cc([C@@H](c3ccc4c(nnn4CC)c3C)C(C)(C)NC(=O)C3CCOC3)ccc2C)S(=O)(=O)c2ccccc2O1 (stereo partly drawn) [Example 134, N-((S)-1-(3-(((R)-4-Ethyl-1,1-dioxido-3,4-dihydro-2H-benzo[b][1,4,5]oxathiazepin-2-yl)methyl)-4-methylphenyl)-1-(1-ethyl-4-methyl-1H-benzo[d][1,2,3]triazol-5-yl)-2-methylpropan-2-yl)tetrahydrofuran-3-carboxamide] | 10 to 100 |
| CC[C@@H]1CN(Cc2cc([C@@H](c3ccc4c(nnn4CC)c3C)C(C)(C)NC(=O)C3CCCOC3)ccc2C)S(=O)(=O)c2ccccc2O1 (stereo partly drawn) [Example 135, N-((S)-1-(3-(((R)-4-Ethyl-1,1-dioxido-3,4-dihydro-2H-benzo[b][1,4,5]oxathiazepin-2-yl)methyl)-4-methylphenyl)-1-(1-ethyl-4-methyl-1H-benzo[d][1,2,3]triazol-5-yl)-2-methylpropan-2-yl)tetrahydro-2H-pyran-3-carboxamide] | 10 to 100 |
| CC[C@@H]1CN(Cc2cc([C@@H](c3ccc4c(nnn4CC)c3C)C(C)(C)NC(=O)c3ccco3)ccc2C)S(=O)(=O)c2ccccc2O1 [Example 136, N-((S)-1-(3-(((R)-4-Ethyl-1,1-dioxido-3,4-dihydro-2H-benzo[b][1,4,5]oxathiazepin-2-yl)methyl)-4-methylphenyl)-1-(1-ethyl-4-methyl-1H-benzo[d][1,2,3]triazol-5-yl)-2-methylpropan-2-yl)furan-2-carboxamide] | 100 to 1000 |
| CC[C@@H]1CN(Cc2cc([C@@H](c3ccc4c(nnn4CC)c3C)C(C)(C)NC(=O)c3ccoc3)ccc2C)S(=O)(=O)c2ccccc2O1 [Example 137, N-((S)-1-(3-(((R)-4-Ethyl-1,1-dioxido-3,4-dihydro-2H-benzo[b][1,4,5]oxathiazepin-2-yl)methyl)-4-methylphenyl)-1-(1-ethyl-4-methyl-1H-benzo[d][1,2,3]triazol-5-yl)-2-methylpropan-2-yl)furan-3-carboxamide] | 10 to 100 |
| CC[C@@H]1CN(Cc2cc([C@@H](c3ccc4c(nnn4CC)c3C)C(C)(C)NC(=O)c3ccns3)ccc2C)S(=O)(=O)c2ccccc2O1 [Example 138, N-((S)-1-(3-(((R)-4-Ethyl-1,1-dioxido-3,4-dihydro-2H-benzo[b][1,4,5]oxathiazepin-2-yl)methyl)-4-methylphenyl)-1-(1-ethyl-4-methyl-1H-benzo[d][1,2,3]triazol-5-yl)-2-methylpropan-2-yl)isothiazole-5-carboxamide] | 10 to 100 |
| CC[C@@H]1CN(Cc2cc([C@@H](c3ccc4c(nnn4CC)c3C)C(C)(C)NC(=O)c3ccc(=O)n(C)c3)ccc2C)S(=O)(=O)c2ccccc2O1 [Example 139, N-((S)-1-(3-(((R)-4-Ethyl-1,1-dioxido-3,4-dihydro-2H-benzo[b][1,4,5]oxathiazepin-2-yl)methyl)-4-methylphenyl)-1-(1-ethyl-4-methyl-1H-benzo[d][1,2,3]triazol-5-yl)-2-methylpropan-2-yl)-1-methyl-6-oxo-1,6-dihydropyridine-3-carboxamide] | 10 to 100 |
| CC[C@@H]1CN(Cc2cc([C@@H](c3ccc4c(nnn4CC)c3C)C(C)(C)NC(=O)c3cccn(C)c3=O)ccc2C)S(=O)(=O)c2ccccc2O1 [Example 140, N-((S)-1-(3-(((R)-4-Ethyl-1,1-dioxido-3,4-dihydro-2H-benzo[b][1,4,5]oxathiazepin-2-yl)methyl)-4-methylphenyl)-1-(1-ethyl-4-methyl-1H-benzo[d][1,2,3]triazol-5-yl)-2-methylpropan-2-yl)-1-methyl-2-oxo-1,2-dihydropyridine-3-carboxamide] | 10 to 100 |
| CC[C@@H]1CN(Cc2cc([C@@H](c3ccc4c(nnn4CC)c3C)C(C)(C)NC(=O)c3ccn(C)c(=O)c3)ccc2C)S(=O)(=O)c2ccccc2O1 [Example 141, N-((S)-1-(3-(((R)-4-Ethyl-1,1-dioxido-3,4-dihydro-2H-benzo[b][1,4,5]oxathiazepin-2-yl)methyl)-4-methylphenyl)-1-(1-ethyl-4-methyl-1H-benzo[d][1,2,3]triazol-5-yl)-2-methylpropan-2-yl)-1-methyl-2-oxo-1,2-dihydropyridine-4-carboxamide] | 10 to 100 |
| CC[C@@H]1CN(Cc2cc([C@@H](c3ccc4c(nnn4CC)c3C)C(C)(C)NC(=O)CC(=O)O)ccc2C)S(=O)(=O)c2ccccc2O1 [Example 142, 3-(((S)-1-(3-(((R)-4-Ethyl-1,1-dioxido-3,4-dihydro-2H-benzo[b][1,4,5]oxathiazepin-2-yl)methyl)-4-methylphenyl)-1-(1-ethyl-4-methyl-1H-benzo[d][1,2,3]triazol-5-yl)-2-methylpropan-2-yl)amino)-3-oxopropanoic acid] | 10 to 100 |
| CC[C@@H]1CN(Cc2cc([C@@H](c3ccc4c(nnn4CC)c3C)C(C)(C)NC(=O)CS(C)(=O)=O)ccc2C)S(=O)(=O)c2ccccc2O1 [Example 143, N-((S)-1-(3-(((R)-4-Ethyl-1,1-dioxido-3,4-dihydro-2H-benzo[b][1,4,5]oxathiazepin-2-yl)methyl)-4-methylphenyl)-1-(1-ethyl-4-methyl-1H-benzo[d][1,2,3]triazol-5-yl)-2-methylpropan-2-yl)-2-(methylsulfonyl)acetamide] | 10 to 100 |
| CC[C@@H]1CN(Cc2cc([C@@H](c3ccc4c(nnn4CC)c3C)C(C)(C)NC(=O)CC#N)ccc2C)S(=O)(=O)c2ccccc2O1 [Example 144, 2-Cyano-N-((S)-1-(3-(((R)-4-ethyl-1,1-dioxido-3,4-dihydro-2H-benzo[b][1,4,5]oxathiazepin-2-yl)methyl)-4-methylphenyl)-1-(1-ethyl-4-methyl-1H-benzo[d][1,2,3]triazol-5-yl)-2-methylpropan-2-yl)acetamide] | 10 to 100 |
| CC[C@@H]1CN(Cc2cc([C@@H](c3ccc4c(nnn4CC)c3C)C(C)(C)NC(=O)c3cnc(OC)nc3)ccc2C)S(=O)(=O)c2ccccc2O1 [Example 145, N-((S)-1-(3-(((R)-4-Ethyl-1,1-dioxido-3,4-dihydro-2H-benzo[b][1,4,5]oxathiazepin-2-yl)methyl)-4-methylphenyl)-1-(1-ethyl-4-methyl-1H-benzo[d][1,2,3]triazol-5-yl)-2-methylpropan-2-yl)-2-methoxypyrimidine-5-carboxamide] | 1 to 10 |
| CC[C@@H]1CN(Cc2cc([C@@H](c3ccc4c(nnn4CC)c3C)C(C)(C)NC(=O)c3cncnc3)ccc2C)S(=O)(=O)c2ccccc2O1 [Example 146, N-((S)-1-(3-(((R)-4-Ethyl-1,1-dioxido-3,4-dihydro-2H-benzo[b][1,4,5]oxathiazepin-2-yl)methyl)-4-methylphenyl)-1-(1-ethyl-4-methyl-1H-benzo[d][1,2,3]triazol-5-yl)-2-methylpropan-2-yl)pyrimidine-5-carboxamide] | 10 to 100 |
| CC[C@@H]1CN(Cc2cc([C@@H](c3ccc4c(nnn4CC)c3C)C(C)(C)NC(=O)c3cnc(SC)nc3)ccc2C)S(=O)(=O)c2ccccc2O1 [Example 147, N-((S)-1-(3-(((R)-4-Ethyl-1,1-dioxido-3,4-dihydro-2H-benzo[b][1,4,5]oxathiazepin-2-yl)methyl)-4-methylphenyl)-1-(1-ethyl-4-methyl-1H-benzo[d][1,2,3]triazol-5-yl)-2-methylpropan-2-yl)-2-(methylthio)pyrimidine-5-carboxamide] | 10 to 100 |
| CC[C@@H]1CN(Cc2cc([C@@H](c3ccc4c(nnn4CC)c3C)C(C)(C)NC(=O)c3c[nH]cn3)ccc2C)S(=O)(=O)c2ccccc2O1 [Example 148, N-((S)-1-(3-(((R)-4-Ethyl-1,1-dioxido-3,4-dihydro-2H-benzo[b][1,4,5]oxathiazepin-2-yl)methyl)-4-methylphenyl)-1-(1-ethyl-4-methyl-1H-benzo[d][1,2,3]triazol-5-yl)-2-methylpropan-2-yl)-1H-imidazole-4-carboxamide] | 100 to 1000 |
| CC[C@@H]1CN(Cc2cc([C@@H](c3ccc4c(nnn4CC)c3C)C(C)(C)NC(=O)c3cscn3)ccc2C)S(=O)(=O)c2ccccc2O1 [Example 149, N-((S)-1-(3-(((R)-4-Ethyl-1,1-dioxido-3,4-dihydro-2H-benzo[b][1,4,5]oxathiazepin-2-yl)methyl)-4-methylphenyl)-1-(1-ethyl-4-methyl-1H-benzo[d][1,2,3]triazol-5-yl)-2-methylpropan-2-yl)thiazole-4-carboxamide] | 10 to 100 |
| CC[C@@H]1CN(Cc2cc([C@@H](c3ccc4c(nnn4CC)c3C)C(C)(C)NC(=O)c3cc[nH]n3)ccc2C)S(=O)(=O)c2ccccc2O1 [Example 150, N-((S)-1-(3-(((R)-4-Ethyl-1,1-dioxido-3,4-dihydro-2H-benzo[b][1,4,5]oxathiazepin-2-yl)methyl)-4-methylphenyl)-1-(1-ethyl-4-methyl-1H-benzo[d][1,2,3]triazol-5-yl)-2-methylpropan-2-yl)-1H-pyrazole-3-carboxamide] | 10 to 100 |
| CC[C@@H]1CN(Cc2cc([C@@H](c3ccc4c(nnn4CC)c3C)C(C)(C)NC(=O)c3cocn3)ccc2C)S(=O)(=O)c2ccccc2O1 [Example 151, N-((S)-1-(3-(((R)-4-Ethyl-1,1-dioxido-3,4-dihydro-2H-benzo[b][1,4,5]oxathiazepin-2-yl)methyl)-4-methylphenyl)-1-(1-ethyl-4-methyl-1H-benzo[d][1,2,3]triazol-5-yl)-2-methylpropan-2-yl)oxazole-4-carboxamide] | 10 to 100 |
